Drawing on a melting point compilation (Tetko et al.; mined from patent text by program, amines drawn as free bases though some values may be those of a salt), this text covers melting point for 89 compounds.

SMILES strings stand for the structures.

The compound `NC(Cc1ccc(OCc2ccccc2)cc1)C(=O)Nc1c(F)cc(F)cc1F` (centres undefined) yielded a melting point of 80.5 to 86.5 °C.
With `O=CNCc1ncc(-c2ccccc2)o1`, the melting point lay within 225 to 228 °C.
To `CS(=O)(=O)NC(=O)N1CC1C#N` (centres undefined) belongs 110 to 112 °C.
Take `O=C(Nc1nonc1-c1ccccc1)NC1CCC(C(F)(F)F)CC1` (centres undefined): the melting point was 212 °C.
As to `O=c1n(CCCCl)nc2n1-c1ccccc1OC2`, the melting point lay within 77 to 78 °C.
`CC(NCC#N)C(O)(Cn1cncn1)c1ccc(F)cc1F` (centres undefined) displayed a melting point of 138 to 139 °C.
For the compound `O=C(ON=C1C(=O)c2ccccc2-c2ccccc21)c1ccccc1`, the melting point was 148 to 149 °C.
To `CC1(C)C(C(=O)NC(=O)CN)C1(C)C` belongs 176 °C; to `CC(C)OC(=O)c1cc(-n2nc3ccc(Cl)cn3c2=O)c(F)cc1Cl`, 120 to 123 °C.
`CC(Cc1ccc(CC2SC(=O)NC2=O)cc1)NCC(O)c1cc(Cl)c(N)c(Cl)c1` (centres undefined) came in with a melting point of 195 to 201 °C.
To `O=C1C(=O)c2ccccc2C2=C1SCC1(CCN(CC(O)CC(F)(F)F)CC1)O2` (centres undefined) belongs 145 to 148 °C.
`CCOC(=O)Oc1cccc(OC)c1Cl` came in with a melting point of 75 to 76 °C.
`Cc1c(C)c(N2CCN(c3ccc(C(F)(F)F)cc3)CC2)c(C)c2c1OC(C)(C)C2N1CCCCC1` (centres undefined) displayed a melting point of 182 to 183 °C.
In the case of `CC(=O)OC1(C(C)=O)C(C)CC2C3CC(C)C4=CC(=O)C=CC4(C)C3(F)C(O)CC21C` (centres undefined), the melting point fell in the range of 291 to 293 °C.
As for `CN(C)N=Nc1ccsc1C(=O)O`, the melting point lay within 108 to 110 °C.
On to `O=[N+]([O-])c1ccc(Oc2c(Cl)cc(C(F)(F)F)cc2Cl)cc1CO`, for which the melting point turned out to be 143 °C.
The result for `C#CCC1(C2CCC3C(O[Si](C)(C)C(C)(C)C)CCCC32C)CC1` (centres undefined) reads 49 to 50 °C.
The compound `COc1cc(C)c(C=CC(C)=CC=C(C)C(=O)O)c(C)c1C` registered a melting point of 188 to 190 °C.
For the compound `O=CCCCOC(c1ccccc1)(c1ccccc1)c1ccccc1`, the melting point is 62 to 65 °C.
On to `FC(F)(F)c1cc(C(F)(F)F)n(-c2ccc(Nc3noc4ccccc34)cc2)n1`, for which the melting point lay in the range of 209 to 210 °C.
The compound `Nc1nc(C(=O)N2CCN(Cc3ccc4c(c3)OCO4)CC2)c(-c2ccncc2)s1` gave a melting point of 216 to 217 °C.
With `Cc1ccc2c(-c3cc(C(C)(C)C)c(O)c(C(C)(C)C)c3)n[nH]c2n1`, the melting point is 239 to 240 °C.
As for `Clc1ccc2cc(OC3CCCCO3)ccc2n1` (centres undefined), the melting point lay within 122 to 124 °C.
As for `CCc1nc2cc(C(N)=O)c(Cl)cc2n1-c1ccc(CCOC(=O)NS(=O)(=O)c2ccc(C)cc2)cc1`, the melting point lay within 170 to 175 °C.
In turn, `CC(=Cc1ccc(C(=O)O)cc1)c1ccc2c(c1)OCCC2(C)C` showed a melting point of 242 to 244 °C.
As to `NS(=O)(=O)c1ccc(-c2noc(-c3ncn4c(C(F)(F)F)cc(-c5ccc(C(F)(F)F)cc5)nc34)n2)s1`, the melting point worked out at 295 °C.
`Oc1ccc(OCc2nnc(C3CC3)s2)cc1` came in with a melting point of 79 to 83 °C.
The result for `CCOC(=O)C1=CNC2=C(C(=O)OCC)CCC(C)N2C1=O` (centres undefined) reads 138 to 140 °C; that for `CC(C)(C)c1cc(N(C(=O)Cc2ccccc2C(=O)O)c2ccccc2)cc(C(C)(C)C)c1O`, 170 to 175 °C; that for `COC(=O)C(=CNC1CC1)C(=O)C=Cc1ccc(OC)cc1`, 125 to 127 °C.
Compound `CCOC(=O)N1CCOC(CC23CC(c4ccccc42)c2ccccc23)C1` (centres undefined) showed a melting point of 143 to 144 °C.
As for `COC(=O)CN(NC(N)=O)c1ccc(Oc2ccccc2)cc1`, the melting point lay in the range of 110 to 113 °C.
The compound `CC(CCCl)C(=O)Nc1scc(C(C)(C)C)c1C#N` (centres undefined) gave a melting point of 115 to 116 °C.
`CN(C(N)=O)c1nc(Cl)nc(Cl)n1`: the melting point was in the range of 172 to 174 °C.
`CC(=O)OCc1ccc(N(c2ccccc2)c2ccc(C=O)cc2)cc1` showed a melting point of 86 to 89 °C.
Compound `N#CSc1ccc(N)c(C(F)(F)F)c1` gave a melting point of 52 to 55 °C.
In turn, `COc1ccccc1C1(CC(=O)N2CCN(c3ccncc3)CC2)C(=O)Nc2ccc(Cl)cc21` (centres undefined) registered a melting point of 111 °C.
In turn, `CCOC(=O)c1c(-c2ccccc2)nc2ccccn12` returned a melting point of 68 °C.
On to `Nc1ccc(N2C(=O)c3ccccc3C2=O)cc1S(F)(F)(F)(F)F`, for which the melting point fell in the range of 176 to 178 °C.
In the case of `CCn1ncc(C(=O)c2ccc(S(C)(=O)=O)c(C3=NOCC3)c2C)c1OCC(=O)c1ccccc1`, the melting point was 177 to 179 °C.
Take `O=C(O)C(=Cc1ccc(OCc2ccccc2)cc1OCc1ccccc1)Cc1ccccc1`: the melting point was 175 to 176 °C.
The compound `O=C(/C=C/c1ccc(F)cc1)c1cnc2sc3c(n12)CCCCC3` had a melting point of 187 to 188 °C.
`N#Cc1ccc(C(=O)c2ccccc2)s1` gave a melting point of 85 to 89 °C.
The result for `CCCCc1ncc2ccccc2c1Cc1ccc(C(=O)O)cc1` reads 212 °C.
Take `C=Cc1c(F)c(F)cc2c(=O)c(C(=O)OCC)cn(C3CC3)c12`: the melting point lay in the range of 178 to 179 °C.
Turning to `COc1ccc(C2CCN(C(=O)C(N)=O)CC2)cc1CC1CCCC1`, the melting point was 117 to 118 °C.
Consider `CCOC(=O)Cc1ccc(SCc2ccc(NC(C)=O)cc2C(=O)O)cc1`, for which the melting point was determined as 170 °C.
`COc1cc(CC(=O)NCCCc2ccc(C)c(C)c2)ccc1OCCO` registered a melting point of 119 to 120 °C.
To `O=C(O)C(O)COc1ccc(Cl)cc1` (centres undefined) belongs 135 to 136 °C; to `C#Cc1ccc(CO[C@@H]2COc3nc([N+](=O)[O-])cn3C2)cc1`, 162 to 164 °C.
To `O=C1CC2(CCCC2)CC(=O)N1c1cccnc1` belongs 153 to 154 °C; to `N#Cc1cn(-c2ccc(C(F)(F)F)cc2)c(=O)n(SC(Cl)(Cl)Cl)c1=O`, 167 to 168 °C.
To `O=S(=O)(c1ccccc1)n1c2ccc(Br)cc2c2c(Cl)ccnc21` belongs 212 to 214 °C; to `CCOC(=O)Cc1c(C)n(Cc2csc(-c3ccc(Cl)cc3)n2)c2ccc(OCc3csc(-c4ccccc4)n3)cc12`, 155 to 157 °C; to `CC(C)(C)c1cccc(S(=O)(=O)n2c(Cc3ccc(CNS(C)(=O)=O)cc3)cc3cc(C(F)(F)F)ccc32)c1`, 96 °C.
For the compound `CC(C)(C)COC1CCC(=O)N1` (centres undefined), the melting point is 45 °C.
As for `Cn1ncnc1COc1nc2c(cc1-c1ccoc1)nnn2-c1c(F)cccc1F`, the melting point was 166 to 169 °C.
Consider `CCCC(=O)Nc1nc(CN2CCN(C(c3ccccc3)c3ccccc3)CC2)cs1`, for which the melting point was 128 to 135 °C.
The result for `CSc1ncc(S(N)(=O)=O)c(Nc2cccc(C)c2)n1` reads 184 °C; that for `CCCCc1nc2c(N)nc3ccc(O)cc3c2n1CCCCNC(=O)c1ccccc1`, 188 to 190 °C; that for `COC(=O)c1c2cccccc-2c(-c2ccccc2)c1-c1ccc(S(C)(=O)=O)cc1`, 98 to 100 °C.
The compound `O=C(O)CCc1conc1-c1ccc(F)c(Cl)c1` displayed a melting point of 140 to 141 °C.
Consider `CCCOCCOc1ccc(-c2ccc3c(c2)C=C(C(=O)Nc2ccc(CN(C)C4CCOCC4)cc2)CCS3(=O)=O)cc1C`, for which the melting point was in the range of 192 to 195 °C.
The compound `COC(=O)C1=C(C)NC(c2c(F)cc(F)cc2F)=NC1c1ccc(F)cc1Cl` (centres undefined) returned a melting point of 112 to 114 °C.
Consider `COc1ccc2nc3ccc(CC(=O)O)cn3c(=O)c2c1`, for which the melting point fell in the range of 281 to 282 °C.
`NS(=O)(=O)c1cccc(C2(O)CCC2)c1`: the melting point lay within 155 to 157 °C.
The compound `COC(=O)Nc1nc2ccccc2n1CCCN1CCN(C(c2ccccc2)c2ccccc2)CC1` showed a melting point of 138 °C.
Turning to `Clc1ccc2c(c1)CCc1cccnc1C2N1CCNCC1` (single isomer, unassigned; (+)), the melting point fell in the range of 153 to 155 °C.
As to `CC(C)(C)C(=O)N1CC=C(C#Cc2ccc3c(c2)NC(=O)CC(c2cccc(C#N)c2)=N3)CC1`, the melting point was determined as 219 °C.
On to `CC(C)(C)OC(=O)N1C[C@@H](CC(=O)COCC[Si](C)(C)C)[C@H]2NC(=O)[C@H]21`, for which the melting point is 89 to 91 °C.
For `Cc1cc(N2CCN(c3ccccc3)CC2)c2c(N)c(C(N)=O)sc2n1`, the melting point lay within 247 to 250 °C.
`CN1CCN(C)C1=Nc1ccccc1CN1CCOCC1` registered a melting point of 56 to 58 °C.
The result for `Cc1nccc2[nH]c(=O)c(C(N)=O)cc12` reads over 320 °C; that for `CS(=O)(=O)NC(=O)Cc1ccc2c(c1)Nc1nccnc1S2`, 236 to 238 °C; that for `Nc1cc(C(=O)Nc2ccccc2)ccc1F`, 167 to 170 °C.
In turn, `CC1(C)C=Cc2c(ccc3c2C(=O)C(Br)=C(O)C3=O)O1` yielded a melting point of 202 to 205 °C.
Consider `O=C(NC/C=C\COc1cc(CN2CCCC2)ccn1)c1ccc[nH]1`, for which the melting point fell in the range of 124 to 127 °C.
As to `Nc1cc(C(O)=S)cc(SCc2ccccc2)c1-c1ccccc1`, the melting point fell in the range of 170 to 172 °C.
Compound `CC(=O)Nc1ccc(C(C)=O)cn1` returned a melting point of 146 to 147 °C.
Compound `Cc1ccc(-c2ccccc2-c2nnn[nH]2)cc1` registered a melting point of 148 to 150 °C.
The compound `CNc1cc(C(C)=O)ccc1OCCCN1CCC(c2noc3cc(F)ccc23)CC1` came in with a melting point of 151 to 153 °C.
In turn, `CCc1cc(OCc2ccc(-c3ccccc3C#N)cc2)c2ccccc2n1` registered a melting point of 151 to 153 °C.
`Cc1cc(C)c2nc(CCCCl)n(-c3ccc(C(C(=O)O)C4CCCC4)cc3)c2n1` (centres undefined) showed a melting point of 214 °C.
For the compound `CCc1cccc(C(C#N)c2nc(OC)cc(OC)n2)c1[N+](=O)[O-]` (centres undefined), the melting point lay in the range of 113 to 114 °C.
`COC(=O)C(C)c1ccc2oc(-c3c(F)cccc3Cl)nc2c1` (centres undefined) came in with a melting point of 104 to 105 °C.
`Cc1ccc(-c2[nH]c(C3CCCCC3)nc2C(=O)O)cc1` had a melting point of 205 to 206 °C.
`CNC(=S)c1cnn(-c2ccccc2)c1C#N` returned a melting point of 215 to 217 °C.
Regarding `O=C1N(Cc2ccccn2)c2ccccc2C12COc1cc3c(cc12)OCCO3` (centres undefined), the melting point lay within 144 to 146 °C.
The result for `Cc1nc2c(NC(=O)C(C)(C)C)c(C(=O)C=Cc3ccccc3)ccn2c1C` reads 108 to 110 °C.
